System: normal human lung fibroblasts
Assay: Ribosomal profiling: translational efficiency in TGFβ-treated fibroblasts
Type: cell-based
Settings: TGFβ-treated fibroblasts
Protocol: Ribosomal profiling allows for measurement of changes in transcription and translation on a genome-wide basis accompanying TGFβ-dependent transformation of fibroblasts to myofibroblasts. Ribosomal profiles of the TGFβ-treated fibroblasts from Example 1 (about 6×10^6 cells/10 cm plate) were prepared and analyzed for changes in translational efficiencies with respect to potential disease-associated cellular changes accompanying this TGFβ-induced transformation.
Briefly, cells were washed with cold PBS supplemented with cycloheximide and lysed with 1× mammalian cell lysis buffer for 10 minutes on ice. Lysates were clarified by centrifugation for 10 minutes at 14,000 rpm and supernatants were collected. Cell lysates were processed to generate ribosomal protected fragments and total mRNA according to the instructions included with the ARTseq Ribosome Profiling Kit (Illumina, San Diego, Calif.). Sequencing of total RNA (RNA) and of ribosome-protected fragments of RNA (RPF) was carried out using RNA-Seq methodology according to the manufacturer's instructions (Illumina). To analyze the ribosomal profiles, RNA-Seq reads were processed with tools from the FASTX-Toolkit (fastq_quality_trimmer, fastx_clipper and fastx_trimmer). Unprocessed and processed reads were evaluated for a variety of quality measures using FastQC, and processed reads were mapped to the human genome using TopHat (see, e.g., Trapnell et al., Bioinformatics 25:1105, 2009). Gene-by-gene assessment of the number of fragments strictly and uniquely mapping to the coding region of each gene was conducted using HTSeq-count, a component of the HTSeq package. […] Genes with low counts in either RPF or RNA were excluded from differential analyses. Pathway and network analyses of differential data were conducted using Ingenuity Pathway Analysis (IPA).

Cc1cc(C2CCCCC2)n(O)c(=O)c1.NCCO [CPX, ciclopirox oloamine]
renormalizing the translational profile of DNASE1L1 (ENSG00000013563): − (− = <0.9)
renormalizing the translational profile of KITLG (ENSG00000049130): − (− = <0.9)
renormalizing the translational profile of ADAMTS6 (ENSG00000049192): − (− = <0.9)
renormalizing the translational profile of LETMD1 (ENSG00000050426): − (− = <0.9)
renormalizing the translational profile of PLEKHA5 (ENSG00000052126): − (− = <0.9)
renormalizing the translational profile of EIF4B (ENSG00000063046): − (− = <0.9)
renormalizing the translational profile of RPL18 (ENSG00000063177): − (− = <0.9)
renormalizing the translational profile of HIPK2 (ENSG00000064393): − (− = <0.9)
renormalizing the translational profile of ASPM (ENSG00000066279): − (− = <0.9)
renormalizing the translational profile of RASSF1 (ENSG00000068028): − (− = <0.9)
renormalizing the translational profile of PABPC1 (ENSG00000070756): − (− = <0.9)
renormalizing the translational profile of RPL31 (ENSG00000071082): − (− = <0.9)
renormalizing the translational profile of PLD1 (ENSG00000075651): − (− = <0.9)
renormalizing the translational profile of EDN1 (ENSG00000078401): − (− = <0.9)
renormalizing the translational profile of AURKA (ENSG00000087586): − (− = <0.9)
renormalizing the translational profile of EPB41L1 (ENSG00000088367): − (− = <0.9)
renormalizing the translational profile of RPL6 (ENSG00000089009): − (− = <0.9)
renormalizing the translational profile of P2RX7 (ENSG00000089041): ++ (++ = 1.5 to 2.0)
renormalizing the translational profile of KDM2B (ENSG00000089094): − (− = <0.9)
renormalizing the translational profile of RPLP0 (ENSG00000089157): − (− = <0.9)
renormalizing the translational profile of IGBP1 (ENSG00000089289): − (− = <0.9)
renormalizing the translational profile of IRAK3 (ENSG00000090376): − (− = <0.9)
renormalizing the translational profile of PABPC4 (ENSG00000090621): − (− = <0.9)
renormalizing the translational profile of FMO2 (ENSG00000094963): − (− = <0.9)
renormalizing the translational profile of ACOT7 (ENSG00000097021): − (− = <0.9)
renormalizing the translational profile of ATP5D (ENSG00000099624): − (− = <0.9)
renormalizing the translational profile of LGALS1 (ENSG00000100097): − (− = <0.9)
renormalizing the translational profile of EIF3L (ENSG00000100129): − (− = <0.9)
renormalizing the translational profile of RPL3 (ENSG00000100316): − (− = <0.9)
renormalizing the translational profile of CEP192 (ENSG00000101639): − (− = <0.9)
renormalizing the translational profile of AMMECR1 (ENSG00000101935): − (− = <0.9)
renormalizing the translational profile of PLP2 (ENSG00000102007): − (− = <0.9)
renormalizing the translational profile of EIF3E (ENSG00000104408): − (− = <0.9)
renormalizing the translational profile of EEF1D (ENSG00000104529): − (− = <0.9)
renormalizing the translational profile of C19orf53 (ENSG00000104979): − (− = <0.9)
renormalizing the translational profile of GLTSCR2 (ENSG00000105373): + (+ = 0.9 to 1.5)
renormalizing the translational profile of RAB3D (ENSG00000105514): − (− = <0.9)
renormalizing the translational profile of RPL18A (ENSG00000105640): − (− = <0.9)
renormalizing the translational profile of COMP (ENSG00000105664): − (− = <0.9)
renormalizing the translational profile of GLCCI1 (ENSG00000106415): − (− = <0.9)
renormalizing the translational profile of CORO2A (ENSG00000106789): − (− = <0.9)
renormalizing the translational profile of GDF10 (ENSG00000107623): + (+ = 0.9 to 1.5)
renormalizing the translational profile of RPL28 (ENSG00000108107): − (− = <0.9)
renormalizing the translational profile of RPL19 (ENSG00000108298): − (− = <0.9)
renormalizing the translational profile of RASD1 (ENSG00000108551): − (− = <0.9)
renormalizing the translational profile of NAT9 (ENSG00000109065): − (− = <0.9)
renormalizing the translational profile of RPL34 (ENSG00000109475): − (− = <0.9)
renormalizing the translational profile of CRYAB (ENSG00000109846): − (− = <0.9)
renormalizing the translational profile of GAPDH (ENSG00000111640): − (− = <0.9)
renormalizing the translational profile of C12orf57 (ENSG00000111678): − (− = <0.9)
renormalizing the translational profile of HBEGF (ENSG00000113070): − (− = <0.9)
renormalizing the translational profile of RPL24 (ENSG00000114391): − (− = <0.9)
renormalizing the translational profile of EEF1B2 (ENSG00000114942): − (− = <0.9)
renormalizing the translational profile of IFIH1 (ENSG00000115267): − (− = <0.9)
renormalizing the translational profile of DPH5 (ENSG00000117543): − (− = <0.9)
renormalizing the translational profile of PPL (ENSG00000118898): − (− = <0.9)
renormalizing the translational profile of PLEKHG1 (ENSG00000120278): + (+ = 0.9 to 1.5)
renormalizing the translational profile of LIAS (ENSG00000121897): − (− = <0.9)
renormalizing the translational profile of GPSM2 (ENSG00000121957): − (− = <0.9)
renormalizing the translational profile of RPL21 (ENSG00000122026): − (− = <0.9)
renormalizing the translational profile of RPL5 (ENSG00000122406): − (− = <0.9)
renormalizing the translational profile of INHBA (ENSG00000122641): − (− = <0.9)
renormalizing the translational profile of CIT (ENSG00000122966): − (− = <0.9)
renormalizing the translational profile of RPL23 (ENSG00000125691): − (− = <0.9)
renormalizing the translational profile of LAMP5 (ENSG00000125869): + (+ = 0.9 to 1.5)

Reference: patent publication US9993494B2, “Compositions and methods for treating fibrotic disease” (eFFECTOR Therapeutics, Inc., priority 2014, dated 2018)
